# Measurements reported in patent EP0396251A2, “Use of fatty acids for the treatment of diseases associated with cytokines” (NATIONAL UNIVERSITY OF SINGAPORE, priority 1989, dated 1990).
# “Also recorded” adds a separate entry of the source. Like-named read-outs stand apart in the source and are kept apart here.
# Legend:
# [1] = tested on: antiviral state induced by human α interferon; assay: cells; assay type: cell-based; settings: for inhibited the action of interferon: summary of Table 3, concentrations and serum as in Table 3
# [2] = tested on: antiviral state induced by human β interferon; assay: cells; assay type: cell-based; settings: Fibroblast, 6 h, read-out: % inhibition of antiviral state induced by: human β interferon
# [3] = tested on: antiviral state induced by human γ interferon; assay: cells; assay type: cell-based; settings: Fibroblast, 6 h, read-out: % inhibition of antiviral state induced by: human γ interferon
# interferon receptors = molecular target: T1, interferon receptors (Homo sapiens, UniProt P17181+P48551); assay: Binding of 125I-labelled human alpha interferon to human fibroblasts (Scatchard plot), Example 3; settings: for down regulating the interferon receptors: Figures 4 and 5
# T1 construct: endogenous in cells; host or cells: human fibroblasts
# T1 sequence (P17181 28-557): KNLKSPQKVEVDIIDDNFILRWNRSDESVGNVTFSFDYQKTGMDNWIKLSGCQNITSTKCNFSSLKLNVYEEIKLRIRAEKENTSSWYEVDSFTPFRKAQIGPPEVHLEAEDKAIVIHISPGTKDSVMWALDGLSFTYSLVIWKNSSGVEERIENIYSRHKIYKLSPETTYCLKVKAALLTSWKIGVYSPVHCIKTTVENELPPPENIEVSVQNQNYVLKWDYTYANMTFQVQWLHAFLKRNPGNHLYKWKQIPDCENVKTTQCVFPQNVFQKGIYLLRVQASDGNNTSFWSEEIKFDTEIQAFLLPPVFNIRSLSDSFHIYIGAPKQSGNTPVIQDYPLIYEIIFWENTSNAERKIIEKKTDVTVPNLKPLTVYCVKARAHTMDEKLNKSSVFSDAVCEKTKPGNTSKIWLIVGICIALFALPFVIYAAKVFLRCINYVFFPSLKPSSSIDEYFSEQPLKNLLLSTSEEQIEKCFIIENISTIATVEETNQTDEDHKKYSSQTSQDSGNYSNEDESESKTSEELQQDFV
# T1 sequence (P48551 27-515): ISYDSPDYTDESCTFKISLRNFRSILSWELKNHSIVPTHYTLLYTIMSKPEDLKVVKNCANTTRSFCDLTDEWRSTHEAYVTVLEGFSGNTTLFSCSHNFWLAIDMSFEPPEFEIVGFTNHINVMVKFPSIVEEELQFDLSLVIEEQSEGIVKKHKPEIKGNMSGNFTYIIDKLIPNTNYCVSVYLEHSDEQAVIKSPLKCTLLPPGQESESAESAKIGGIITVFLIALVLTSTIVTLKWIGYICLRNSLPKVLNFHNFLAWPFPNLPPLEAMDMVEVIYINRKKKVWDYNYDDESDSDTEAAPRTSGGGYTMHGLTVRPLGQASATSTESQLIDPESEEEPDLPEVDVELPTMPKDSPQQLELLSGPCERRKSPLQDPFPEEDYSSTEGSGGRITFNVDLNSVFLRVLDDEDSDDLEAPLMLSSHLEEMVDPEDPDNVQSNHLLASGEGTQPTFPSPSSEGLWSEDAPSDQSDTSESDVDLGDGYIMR
# Method: The binding of interferons to human cells was analysed with human alpha interferon labelled with radioactive iodine. The ¹²⁵I-labelled human alpha interferon was assayed for biological activity as well as analysed by sodium dodecyl sulphate (SDS)-polyacrylamide gel electrophoresis before use to ensure that the labelled ligand was not degraded and biologically active. The labelled ligand was then used in binding studies with human fibroblasts as previously described (Thompson et al., Branca and Baglioni; and Epstein et al.). The results of this study are expressed as a Scatchard plot of the binding data in Figures 3 to 6. The cells were washed twice with growth medium to remove most of the fatty acid before they were used to measure the binding of ¹²⁵I-human alpha interferon to their receptors. B and F are concentration of bound and free ¹²⁵I-human alpha interferon respectively.
# [4] = tested on: total cellular protein synthesis; assay: Total cellular protein synthesis; assay type: cell-based
# [5] = tested on: uptake of ³[H]-uridine by the cells; assay: Uptake of 3[H]-uridine by the cells; assay type: cell-based
# [6] = tested on: human alpha interferon-induced antiviral state; assay: Kinetics of the inhibition of the interferon-induced antiviral state in human fibroblasts, Example 2; assay type: cell-based
# Method: Human fibroblasts grown in 96 well Micro-test II plates were incubated with growth medium containing 1% fetal calf serum and 50µM arachidonic acid for up to 6 hours. The cells were then assayed for the inhibition of the human alpha interferon-induced antiviral state.
# Also, human fibroblasts in 96 well Micro-test II plates were incubated with growth medium containing 1% fetal calf serum and 50µM arachidonic acid for 6 hours.
# interferon activity = settings: Sarkar and Gupta; cited from earlier work
# [7] = tested on: total protein and RNA synthesis in the cells; settings: at concentrations exceeding 1000µM; Sarkar and Gupta; cited from earlier work
# [8] = tested on: induction of antiviral state by human α interferon in human fibroblasts; assay type: cell-based
# [9] = tested on: induction of antiviral state by mouse interferon in mouse L cells; assay type: cell-based; settings: 50 µM
# [10] = tested on: induction of antiviral state by mouse interferon in mouse A9 cells; assay type: cell-based; settings: 50 µM
# [11] = Homo sapiens, Fibroblast, 6 h, read-out: % inhibition of antiviral state induced by: human α interferon, 50µM compound, 1% fetal calf serum, 6 hours
# [12] = Homo sapiens, Fibroblast, read-out: % inhibition of the antiviral state induced by human α interferon, Table 4: 50 µM compound, 1% fetal calf serum
# [13] = Homo sapiens, Fibroblast, read-out: % inhibition of the antiviral state induced by human α interferon, Table 4: 50 µM compound, 10% fetal calf serum
# [14] = Homo sapiens, Fibroblast, 6 h, read-out: % inhibition of antiviral state induced by: human α interferon, 50µM compound, 10% fetal calf serum, 6 hours
smiles,measurement,setting,value
"CCCCCC=CCC=CCC=CCC=CCCCC(=O)O [arachidonic acid, 5,8,11,14-eicosatetraenoic acid]",inhibition at 50 µM,[1]; [11],≥ 90%
same,inhibition at 50 µM,[1]; [12],≥ 90%
same,inhibition at 50 µM,[1]; [13],0%
same,inhibition at 300 µM,"[1]; Homo sapiens, Fibroblast, read-out: % inhibition of the antiviral state induced by human α interferon, Table 4: 300 µM compound, 10% fetal calf serum",≥ 90%
same,inhibited the action of interferon,[1],≥ 90%
same,inhibition at 50 µM,[2],≥ 90%
same,inhibition at 50 µM,[3],≥ 80%
same,down regulating the interferon receptors,interferon receptors,30-60%
same,inhibition of total cellular protein synthesis,[4],did not inhibit
same,inhibition of the uptake of ³[H]-uridine by the cells,[5],partially inhibited
same,reversibility of the inhibition after removal of compound,"[6]; 50µM for 6 hours, washed, reincubated 0.5, 1, 2 or 24 hours, 1% fetal calf serum (Figure 2)",reversible with time
same,onset of inhibition of the interferon-induced antiviral state,"[6]; 50µM, 1% fetal calf serum, incubation up to 6 hours (Figure 1)",within minutes
"CC(Cc1ccc(O)c(O)c1)C(C)Cc1ccc(O)c(O)c1 (stereo not drawn) [Nordihydroguaiaretic acid, 4,4′-(2,3-dimethyltetramethylene)bis(benzene-1,2-diol)]",inhibition at 50 µM,[1]; [14],≥ 90%
same,inhibited the action of interferon,[1],≥ 90%
same,inhibition at 50 µM,[2],≥ 90%
same,down regulation of the interferon receptors,interferon receptors; 10% fetal calf serum (Figure 6),does not seem to significantly down regulate
"CC(=O)N1CCN(c2ccc(OC[C@H]3CO[C@](Cn4ccnc4)(c4ccc(Cl)cc4Cl)O3)cc2)CC1 (relative stereo) [Ketoconazole, cis-1-acetyl-4-{4-[2-(2,4-dichlorophenyl)-2-imidazol-1-ylmethyl-1,3-dioxolan-4-ylmethoxy]phenyl}-piperazine, reference compound]",inhibition at 100 µM,"[1]; Homo sapiens, Fibroblast, 6 h, read-out: % inhibition of antiviral state induced by: human α interferon, 100µM compound, 10% fetal calf serum, 6 hours",≥ 90%
same,inhibited the action of interferon,[1],≥ 90%
same,inhibition at 100 µM,[2],≥ 90%
same,inhibition of total cellular protein synthesis,[4],did not inhibit
CC(C)Cc1ccc(C(C)C(=O)O)cc1 (stereo not drawn) [ibuprofen],concentration at which interferon activity could be suppressed,interferon activity,exceeding 1000 µM
same,effect on total protein and RNA synthesis in the cells,[7],began to inhibit total protein and RNA synthesis
O=c1c(O)c(-c2ccc(O)c(O)c2)oc2cc(O)cc(O)c12 [Quercetin],inhibition at 50 µM,[1]; [14],90%
same,inhibited the action of interferon,[1],≥ 90%
"CCCCCCCCC#CCC#CCC#CCCCC(=O)O [5,8,11,-eicosatriynoic acid, 5,8,11-eicosatriynoic acid]",inhibition at 50 µM,[1]; [11],≥ 90%
same,inhibited the action of interferon,[1],≥ 90%
CCCCC1C(=O)N(c2ccccc2)N(c2ccc(O)cc2)C1=O (stereo not drawn) [Oxyphenylbutazone],% inhibition in human fibroblasts,[8]; 50 µM,could not measure any inhibitory effect; also recorded: not measurable
same,% inhibition in mouse L cells,[9],could not measure any inhibitory effect; also recorded: not measurable
CCCCCC#CCC#CCC#CCC#CCCCC(=O)O,inhibition at 50 µM,[1]; [11],≥ 90%
same,inhibition at 50 µM,[1]; [12],≥ 90%
same,inhibition at 50 µM,[1]; [13],0%
same,inhibition at 200 µM,"[1]; Homo sapiens, Fibroblast, read-out: % inhibition of the antiviral state induced by human α interferon, Table 4: 200 µM compound, 10% fetal calf serum",≥ 90%
same,inhibition at 200 µM,"[1]; Homo sapiens, Fibroblast, read-out: inhibit the interferon-induced antiviral state, 200µM, 10% fetal calf serum",≥ 90%
same,inhibited the action of interferon,[1],≥ 90%
same,inhibition at 50 µM,[2],≥ 90%
same,inhibition at 50 µM,[3],≥ 80%
same,down regulating the interferon receptors,interferon receptors,30-60%
same,inhibition of total cellular protein synthesis,[4],did not inhibit
same,inhibition of the uptake of ³[H]-uridine by the cells,[5],partially inhibited
CCCCC/C=C\C/C=C\C/C=C\C/C=C\CCCC(=O)O [sodium arachidonate],inhibition at 300 µM,"[1]; Homo sapiens, Fibroblast, read-out: inhibit the interferon-induced antiviral state, 300µM, 10% fetal calf serum",≥ 90%
COc1ccc2c(c1)c(CC(=O)O)c(C)n2C(=O)c1ccc(Cl)cc1 [Indomethacin],% inhibition in human fibroblasts,[8]; 50 µM,not measurable
same,% inhibition in human fibroblasts,[8]; 300 µM,could not measure any inhibitory effect; also recorded: not measurable
same,% inhibition in mouse L cells,[9],not measurable
same,% inhibition in mouse A9 cells,[10],not measurable
same,concentration at which interferon activity could be suppressed,interferon activity,exceeding 1000 µM
